This note sets out measurements from PubChem BioAssay AID206 (DTP/NCI, 2004).

In this test the test system is nude mice, HT29 intrarenal xenograft, tumor weight T/C. Description: NCI In Vivo Anticancer Drug Screen. Data for tumor model HT29;CX-1 Human Adenocarcinoma (MER+) (intrarenal inoculation) in NU/NU Swiss (nude) mice. Particulars: endpoint: mean tumor weight change, higher = larger tumour. An outline of the steps: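 T/C = treated-group value ÷ vehicle-group value, using tumor size or survival.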

The mark [1] stands for this setting: dose: 150.0 mg/kg/injection, schedule: Q04DX004 (sc), vehicle: saline with Tween-80.
Where [2] appears, read: dose: 300.0 mg/kg/injection, schedule: Q04DX004 (sc), vehicle: saline with Tween-80.
Setting [3] is: dose: 600.0 mg/kg/injection, schedule: Q04DX004 (sc), vehicle: saline with Tween-80.
The mark [4] stands for this setting: dose: 75.0 mg/kg/injection, schedule: Q04DX004 (sc), vehicle: saline.
[5] abbreviates: dose: 150.0 mg/kg/injection, schedule: Q04DX004 (sc), vehicle: saline.
Setting [6] is: dose: 300.0 mg/kg/injection, schedule: Q04DX004 (sc), vehicle: saline.
Setting [7] is: dose: 100.0 mg/kg/injection, schedule: Q04DX004 (sc), vehicle: water.
The mark [8] stands for this setting: dose: 200.0 mg/kg/injection, schedule: Q04DX004 (sc), vehicle: water.
[9] abbreviates: dose: 100.0 mg/kg/injection, schedule: Q01DX010 (sc), vehicle: saline.
[10] abbreviates: dose: 200.0 mg/kg/injection, schedule: Q01DX010 (sc), vehicle: saline.
Setting [11] is: dose: 400.0 mg/kg/injection, schedule: Q01DX010 (sc), vehicle: saline.

The structures appear in SMILES notation. Inconclusive results are not listed.

As for `Cc1ccc2c(c1)C(=O)N(CC[P+](c1ccccc1)(c1ccccc1)c1ccccc1)C2=O`, the T/C (dose: 3.13 mg/kg/injection, schedule: Q01DX010 (sc), vehicle: Klucel (hydroxypropylcellulose) (HPC)) is 70 % of control; the T/C (dose: 6.25 mg/kg/injection, schedule: Q01DX010 (sc), vehicle: Klucel (hydroxypropylcellulose) (HPC)) was 37 % of control; the T/C (dose: 12.5 mg/kg/injection, schedule: Q01DX010 (sc), vehicle: Klucel (hydroxypropylcellulose) (HPC)) was 86 % of control; the T/C (dose: 25.0 mg/kg/injection, schedule: Q01DX010 (sc), vehicle: Klucel (hydroxypropylcellulose) (HPC)) is 75 % of control.

As to `C[C@]12CC[C@H]3[C@@H](CCC4=C[C@@H](OC5OCC(OC6OC(CO)C(O)C(O)C6O)C(O)C5O)CC[C@@]43C=O)[C@@]1(O)CCC2C1=CC(=O)OC1` (stereo partly drawn), the T/C (dose: 3.75 mg/kg/injection, schedule: Q04DX004 (sc), vehicle: Klucel (hydroxypropylcellulose) (HPC)) was 67 % of control; the T/C (dose: 7.5 mg/kg/injection, schedule: Q04DX004 (sc), vehicle: Klucel (hydroxypropylcellulose) (HPC)) was 97 % of control; the T/C (dose: 15.0 mg/kg/injection, schedule: Q04DX004 (sc), vehicle: Klucel (hydroxypropylcellulose) (HPC)) was 93 % of control; the T/C (dose: 30.0 mg/kg/injection, schedule: Q04DX004 (sc), vehicle: Klucel (hydroxypropylcellulose) (HPC)) was 110 % of control.

For the molecule `CC(=O)N(C)O`, the T/C under setting [1] is 88 % of control, the T/C under setting [2] is 71 % of control and the T/C under setting [3] is 45 % of control.

For the molecule `NC(=O)/C=C/C(=O)c1c(Cl)cccc1Cl`, the T/C (dose: 36.0 mg/kg/injection, schedule: Q04DX004 (sc), vehicle: saline with Tween-80) is 52 % of control.

With `CC(=O)OCC1(C)NC(=O)c2ccccc2O1` (stereo not drawn), the T/C runs as follows: under setting [1], 78 % of control; under setting [2], 79 % of control; under setting [3], 100 % of control; (dose: 1200.0 mg/kg/injection, schedule: Q04DX004 (sc), vehicle: saline with Tween-80) 52 % of control.

Consider `NC(=O)NO`, for which the T/C (dose: 37.5 mg/kg/injection, schedule: Q04DX004 (sc), vehicle: saline) is 75 % of control; the T/C under setting [4] is 79 % of control; the T/C under setting [5] is 75 % of control; the T/C under setting [6] is 86 % of control.

`CC(=O)OCC(OC(C)=O)C(Cl)CCl` (stereo not drawn): the T/C is 114 % of control (dose: 31.25 mg/kg/injection, schedule: Q04DX004 (ip), vehicle: saline); 121 % of control (dose: 62.5 mg/kg/injection, schedule: Q04DX004 (ip), vehicle: saline); 84 % of control (dose: 125.0 mg/kg/injection, schedule: Q04DX004 (ip), vehicle: saline); 100 % of control (dose: 250.0 mg/kg/injection, schedule: Q04DX004 (ip), vehicle: saline); 115 % of control (dose: 500.0 mg/kg/injection, schedule: Q04DX004 (ip), vehicle: saline).

In the case of `O=c1[nH]c(=O)c2nc(-c3cccnc3)cnc2[nH]1`, the T/C is, setting by setting: (dose: 100.0 mg/kg/injection, schedule: Q04DX004 (sc), vehicle: Klucel (hydroxypropylcellulose) (HPC)) 68 % of control; (dose: 200.0 mg/kg/injection, schedule: Q04DX004 (sc), vehicle: Klucel (hydroxypropylcellulose) (HPC)) 85 % of control; (dose: 400.0 mg/kg/injection, schedule: Q04DX004 (sc), vehicle: Klucel (hydroxypropylcellulose) (HPC)) 102 % of control; (dose: 800.0 mg/kg/injection, schedule: Q04DX004 (sc), vehicle: Klucel (hydroxypropylcellulose) (HPC)) 77 % of control.

`NC(=O)/C=C/c1c[nH]c2nccnc12`: the T/C (dose: 25.0 mg/kg/injection, schedule: Q04DX004 (sc), vehicle: water) was 114 % of control; the T/C (dose: 50.0 mg/kg/injection, schedule: Q04DX004 (sc), vehicle: water) is 64 % of control; the T/C under setting [7] is 86 % of control; the T/C under setting [8] was 102 % of control.

`Nc1cccc(=O)[nH]1`: the T/C is, setting by setting: under setting [6], 115 % of control; (dose: 600.0 mg/kg/injection, schedule: Q04DX004 (sc), vehicle: saline) 96 % of control; (dose: 1200.0 mg/kg/injection, schedule: Q04DX004 (sc), vehicle: saline) 87 % of control; (dose: 2400.0 mg/kg/injection, schedule: Q04DX004 (sc), vehicle: saline) 79 % of control.

For the molecule `O=C(O)C1CC(c2ccccc2)=NN1c1ccccc1` (stereo not drawn), the T/C by setting is: (dose: 75.0 mg/kg/injection, schedule: Q04DX004 (sc), vehicle: water) 76 % of control; (dose: 150.0 mg/kg/injection, schedule: Q04DX004 (sc), vehicle: water) 79 % of control; (dose: 300.0 mg/kg/injection, schedule: Q04DX004 (sc), vehicle: water) 74 % of control.

`C=C1N(C)c2ccccc2C1(C)C`: the T/C is, setting by setting: (dose: 50.0 mg/kg/injection, schedule: Q04DX004 (sc), vehicle: saline with Tween-80) 66 % of control; (dose: 100.0 mg/kg/injection, schedule: Q04DX004 (sc), vehicle: saline with Tween-80) 73 % of control; (dose: 200.0 mg/kg/injection, schedule: Q04DX004 (sc), vehicle: saline with Tween-80) 94 % of control.

Turning to `CCCCCCCCNc1cc2c3c(c1)CCCN3CCC2`, the T/C runs as follows: (dose: 3.0 mg/kg/injection, schedule: Q04DX004 (sc), vehicle: Klucel (hydroxypropylcellulose) (HPC)) 69 % of control; (dose: 6.0 mg/kg/injection, schedule: Q04DX004 (sc), vehicle: Klucel (hydroxypropylcellulose) (HPC)) 103 % of control; (dose: 12.0 mg/kg/injection, schedule: Q04DX004 (sc), vehicle: Klucel (hydroxypropylcellulose) (HPC)) 73 % of control.

As to `N=C(N)Sc1ccccn1`, the T/C reads like this: (dose: 50.0 mg/kg/injection, schedule: Q01DX010 (sc), vehicle: saline) 89 % of control; under setting [9], 100 % of control; under setting [10], 41 % of control; under setting [11], 74 % of control.

With `[Cl][Mn][Cl]`, the T/C (dose: 18.75 mg/kg/injection, schedule: Q04DX004 (sc), vehicle: saline) was 182 % of control; the T/C under setting [4] is 171 % of control; the T/C under setting [5] is 121 % of control.

For the molecule `Oc1cc2c3c(c1)c1cc4c(cc1c[n+]3CC2)OCO4`, the T/C reads like this: under setting [7], 53 % of control; under setting [8], 61 % of control; (dose: 400.0 mg/kg/injection, schedule: Q04DX004 (sc), vehicle: water) 73 % of control.

Take `COc1cccc2c1C(=O)c1c(O)c3c(c(O)c1C2=O)CC(O)(/C(C)=N/NC(=O)CCC(=O)N/N=C(\C)C1(O)Cc2c(O)c4c(c(O)c2C(OC2CC(N)C(O)C(C)O2)C1)C(=O)c1c(OC)cccc1C4=O)CC3OC1CC(N)C(O)C(C)O1` (stereo not drawn): the T/C runs as follows: (dose: 6.25 mg/kg/injection, schedule: Q01DX010 (sc), vehicle: water) 114 % of control; (dose: 12.5 mg/kg/injection, schedule: Q01DX010 (sc), vehicle: water) 47 % of control; (dose: 15.63 mg/kg/injection, schedule: Q04DX004 (sc), vehicle: water) 64 % of control; (dose: 25.0 mg/kg/injection, schedule: Q01DX010 (sc), vehicle: water) 46 % of control; (dose: 31.25 mg/kg/injection, schedule: Q04DX004 (sc), vehicle: water) 3 % of control; (dose: 62.5 mg/kg/injection, schedule: Q04DX004 (sc), vehicle: water) 120 % of control.

Turning to `Nc1ccc2nc3ccc(N)cc3[n+](-c3ccccc3)c2c1`, the T/C was 80 % of control (dose: 9.0 mg/kg/injection, schedule: Q04DX004 (sc), vehicle: saline); 62 % of control (dose: 18.0 mg/kg/injection, schedule: Q04DX004 (sc), vehicle: saline); 96 % of control (dose: 36.0 mg/kg/injection, schedule: Q04DX004 (sc), vehicle: saline); 52 % of control (dose: 72.0 mg/kg/injection, schedule: Q04DX004 (sc), vehicle: saline).

As to `O=CC=O`, the T/C is, setting by setting: (dose: 50.0 mg/kg/injection, schedule: Q01DX010 (sc), vehicle: saline with Tween-80) 64 % of control; (dose: 100.0 mg/kg/injection, schedule: Q01DX010 (sc), vehicle: saline with Tween-80) 66 % of control; (dose: 200.0 mg/kg/injection, schedule: Q01DX010 (sc), vehicle: saline with Tween-80) 38 % of control.

Turning to `CCCC(=O)O`, the T/C is, setting by setting: under setting [9], 69 % of control; under setting [10], 65 % of control; under setting [11], 110 % of control; (dose: 800.0 mg/kg/injection, schedule: Q01DX010 (sc), vehicle: saline) 79 % of control.
